The results in this text go back to US5015639A, “Substituted benzazepines, their preparation and pharmaceutical compositions containing them” (Schering Corporation, priority 1989, dated 1991).

For one test, the target named is T1, D-2 receptor (Rattus norvegicus, UniProt P61169).
T1 construct: Striatal tissue was excised, pooled, and homogenized; tissue Charles River Breeding Laboratories, Mass; (animals); host or cells: striatum of male Sprague-Dawley rats, washed membrane pellet
The experiment in a line: Competitive inhibition assay vs. 3H-spiperone (D-2 receptor binding). The arrangement: species or system Male Sprague-Dawley rat (striatal tissue). The conditions noted are these: rat striatal homogenate, 0.2 nM 3H-spiperone, pH 7.4, 37° C., 15 min. The protocol:
(§1) Many compounds capable of effecting reproducible physiological changes in neural tissues are believed to operate by binding at one or more receptor sites.
(§2) Tritiated SCH 23390 and tritiated spiperone (a potent D-2 ligand) were obtained as described in the Billard et al. reference supra and serially diluted in 0.05 M Tris buffer, pH 7.4, as required. A compound of the invention is diluted in 0.05 M Tris buffer, pH 7.4, as required.
(§3) Male Sprague-Dawley rats (200 to 250 g) from Charles River Breeding Laboratories, Mass. were used to obtain brain tissue. The rats were humanely sacrificed and their brains removed and placed on ice. Striatal tissue was excised, pooled, and homogenized (Brinkman Polytron, 10 sec) in 100 volumes (w/v) of ice cold 50 mM Tris buffer, pH 7.4 (at 25° C.). The homogenate was centrifuged at 20,000 xg for 10 min. The resultant pellet was rehomogenized in Tris buffer and centrifuged again. The final pellet was resuspended in 50 mM Tris buffer pH 7.4 containing 120 mM NaCl, 5 mM KCl, 2 mM CaCl2, and 1 mM MgCl2.
(§4) Polypropylene incubation tubes received 100 μl of the individual test compounds at various concentrations dissolved or suspended in 0.05 M Tris, pH 7.4 containing 4 mg/ml methylcellulose, 100 μl of a solution of ^3 H-SCH 23390 in Tris buffer (final reaction mixture concentration =0.3 nM) or 100 μl of a solution of 3H-spiperone in Tris buffer (final concentration =0.2 nM) and 800 μl of tissue suspension (ca. 3 mg/assay). Tubes were incubated at 37° C. for 15 minutes and rapidly vacuum filtered through Whatman GF/B filters and rinsed 4 times with 4 ml of ice cold 50 mM Tris buffer, pH 7.4. The filters were transferred to scintillation vials, equilibated with 10 ml of scintillant (Scintosol, Isolab, Inc.) for 16 hours at 25° C. and the radioactivity determined in a liquid scintillation counter. Ki values were determined as described by Billard et al. using the relationship Ki =IC50 /(1+([L]/KD)) wherein IC50 =concentration of test drug necessary to displace 50% of specifically bound ^3 H-Sch 23390, [L]=concentration of radioligand used in the assay, and KD =dissociation constant.

A further test has as its target T2, dopamine D-1 receptor (Rattus norvegicus, UniProt P18901).
T2 construct: Striatal tissue was excised, pooled, and homogenized; tissue Charles River Breeding Laboratories, Mass; (animals); host or cells: striatum of male Sprague-Dawley rats, washed membrane pellet
The experiment in a line: Competitive inhibition assay vs. 3H-SCH 23390 (dopamine D-1 receptor binding). Details: species or system Male Sprague-Dawley rat (striatal tissue). Here is the method:
as §1, §2, §3, §4

The test system of test [1] is conditioned avoidance response (CAR). The experiment in a line: Conditioned avoidance suppression in rats (Rat CAR). It counts as in vivo. The conditions noted are these: lowest dose that significantly (P<0.05) reduced avoidance responding, read-out: Rat CAR, minimal effective dose (MED). The protocol: N. Y. Acad. Sci. 66, 740 (1957)}. A series of experiments was carried out to assess the ability of the compounds of this invention to suppress the conditioned avoidance response (CAR) in rats.
Rats were required to jump onto a platform located 6.75 inches (17.15 cm) above the grid floor of an experimental chamber in response to a 5-second tone to avoid a 10-second foot shock (0.6 ma). Each experimental session consisted of 20 such trials presented at 30-second intervals. A correct CAR is scored whenever the rat jumps onto the platform during the tone (prior to foot shock). An escape response is scored when the rat jumps onto the platform during a shock. A response failure is defined as the lack of an escape response during the 10-second shock period.
Groups of 6-8 rats were trained in two consecutive days (total of 40 trials). Rats that reached criterion on day 2 (correct CARs on 16 or more of the 20 trials) were treated with either a test drug or vehicle on day 3. Suppression of CAR was analyzed statistically using Student's t-test comparing the performances of drug-treated to vehicle-treated rats.

Where [2] appears, read: rat striatal homogenate, 0.3 nM 3H-SCH 23390, pH 7.4, 37° C., 15 min, read-out: Ki vs. 3H-SCH 23390.

Like-named read-outs stand apart in the source and are kept apart here.

T1 sequence (P61169 whole entry): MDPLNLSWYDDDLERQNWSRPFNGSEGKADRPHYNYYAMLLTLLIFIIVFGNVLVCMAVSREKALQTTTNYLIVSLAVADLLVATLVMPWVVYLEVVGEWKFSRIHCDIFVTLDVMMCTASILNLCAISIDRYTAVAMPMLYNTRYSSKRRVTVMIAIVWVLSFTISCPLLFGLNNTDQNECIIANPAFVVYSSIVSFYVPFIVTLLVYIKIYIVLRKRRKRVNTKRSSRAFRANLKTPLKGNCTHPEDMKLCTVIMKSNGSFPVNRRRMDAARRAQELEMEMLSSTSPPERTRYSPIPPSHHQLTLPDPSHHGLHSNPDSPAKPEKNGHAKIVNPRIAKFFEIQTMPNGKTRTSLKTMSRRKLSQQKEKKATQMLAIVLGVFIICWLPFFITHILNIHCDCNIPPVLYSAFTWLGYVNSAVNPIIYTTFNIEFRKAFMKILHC
T2 sequence (P18901 whole entry): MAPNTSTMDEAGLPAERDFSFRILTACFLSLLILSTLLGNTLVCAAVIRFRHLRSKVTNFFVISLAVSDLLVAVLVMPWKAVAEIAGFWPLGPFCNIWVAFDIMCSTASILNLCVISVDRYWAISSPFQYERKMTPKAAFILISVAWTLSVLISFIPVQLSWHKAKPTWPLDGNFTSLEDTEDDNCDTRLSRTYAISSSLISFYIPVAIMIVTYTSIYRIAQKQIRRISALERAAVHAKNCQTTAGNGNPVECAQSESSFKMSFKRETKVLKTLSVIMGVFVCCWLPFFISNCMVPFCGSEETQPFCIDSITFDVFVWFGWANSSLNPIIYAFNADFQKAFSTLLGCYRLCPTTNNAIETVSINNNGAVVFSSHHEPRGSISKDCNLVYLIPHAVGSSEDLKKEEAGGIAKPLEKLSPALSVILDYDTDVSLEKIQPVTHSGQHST

Turning to `C=CCC1CN(C)CCc2cc(Cl)c(OCOC(=O)C(C)(C)C)cc21` (stereo not drawn) [Compound 20, 8-chloro-7-(t-butyryloxy-methoxy)-5-allyl-3-methyl-2,3,4,5-tetrahydro-lH-3-benzazepine], the values for the Ki at D-2 receptor and at dopamine D-1 receptor (setting [2]) were 2620 nM and 240 nM, respectively. The minimal effective dose (usually the lowest level tested that produced the effect sought) is over 30 mg/kg in test [1] (po) and 0.1 mg/kg in test [1] (sc).
Turning to `CN(C)CCCC1CN(C)CCc2cc(Cl)c(O)cc21` (stereo not drawn) [HO CH3 (CH2)3 N(CH3)2 H, 8-chloro-5-(N,N-dimethylaminopropyl)-3-methyl-2,3,4,5-tetrahydro-lH-3-benzazepine-7-ol], the Ki (in general, the dissociation constant of the complex between target and ligand, obtained from inhibition or displacement) at D-2 receptor was over 100000 nM; on dopamine D-1 receptor (setting [2]), 1100 nM.
Consider `CN1CCc2cc(Cl)c(O)cc2C2(CCCC2)C1` [Compound 15, 8-chloro-7-hydroxy-3-methyl-2,3,4,5-tetrahydrospiro[lH-3-benzazepine-5,5'-cyclopentane]], for which the Ki at D-2 receptor was determined as 860 nM; on dopamine D-1 receptor, 19 nM. The figures for the minimal effective dose in test [1] (po) and in test [1] (sc) were over 30 mg/kg and 1 mg/kg, respectively.
Regarding `CN1CCc2cc(Cl)c(O)cc2C(n2ccnc2)C1` (stereo not drawn) [Compound 7], the minimal effective dose in test [1] (po) was over 30 mg/kg; in test [1] (sc), over 10 mg/kg.
As to `C=CCC1CN(C)CCc2cc(Cl)c(OC(=O)C(C)C)cc21` (stereo not drawn) [Compound 17, 8-chloro-7-(isopropyl-formyloxy)-5-allyl-3-methyl-2,3,4,5-tetrahydro-lH-3-benzazepine], the Ki was 3450 nM at D-2 receptor and 84 nM at dopamine D-1 receptor (setting [2]). Further, the results for the minimal effective dose in test [1] (po) and in test [1] (sc) were over 30 mg/kg and 0.3 mg/kg, respectively.
As to `C=CCC1CN(C)CCc2cc(Cl)c(O)cc21` (stereo not drawn) [Compound 14, 8-chloro-5-allyl-3-methyl-2,3,4,5-tetrahydro-lH-3-benzazepine-7-ol], the Ki at D-2 receptor was 170 nM; on dopamine D-1 receptor (setting [2]), 6 nM. Besides, the values for the minimal effective dose in test [1] (po) and in test [1] (sc) were over 30 mg/kg and 0.1 mg/kg, respectively.
With `CN1CCc2cc(Cl)c(O)cc2C(OCC(F)(F)F)C1` (stereo not drawn) [Compound 9, 8-chloro-5-(2,2,2-trifluoroethoxy)-3-methyl-2,3,4,5-tetrahydro-lH-3-benzazepine-7-ol], the Ki at D-2 receptor came to 14900 nM; on dopamine D-1 receptor (setting [2]) it was 59 nM. Besides, the figures for the minimal effective dose in test [1] (po) and in test [1] (sc) were over 30 mg/kg and 1 mg/kg, respectively.
As for `CC(=O)Oc1cc2c(cc1Cl)CCN(C)CC2CC=C(C)C` (stereo not drawn) [Compound 19, 8-chloro-7-acetoxy-5-(3-methyl-2-butenyl)-3-methyl-2,3,4,5-tetrahydro-lH-3-benzazepine], the values for the Ki on D-2 receptor and at dopamine D-1 receptor (setting [2]) were 955 nM and 17 nM, respectively. Also, the minimal effective dose in test [1] (po) is over 30 mg/kg; in test [1] (sc), under 1 mg/kg.
In the case of `CN1CCc2cc(Cl)c(O)cc2C(N2CCCCC2)C1` (stereo not drawn) [Compound 6, 8-chloro-3-methyl-5-(1-piperidinyl)-2,3,4,5-tetrahydro-lH-3-benzazepine-7-ol], the values for the Ki at D-2 receptor and on dopamine D-1 receptor (setting [2]) were 7500 nM and 64 nM, respectively. In addition, the results for the minimal effective dose in test [1] (po) and in test [1] (sc) were 30 mg/kg and 3 mg/kg, respectively.
In the case of `CN1CCc2cc(Cl)c(O)cc2C(C2CCCCC2)C1` (stereo not drawn) [Compound 8, 8-chloro-5-cyclohexyl-3-methyl-2,3,4,5-tetrahydro-lH-3-benzazepine-7-ol], the inhibition constant (Ki) on D-2 receptor worked out at 570 nM; on dopamine D-1 receptor (setting [2]), 10 nM. Also, the minimal effective dose in test [1] (po) is 30 mg/kg; in test [1] (sc), at most 1 mg/kg.
For the compound `CCSC1CNCCc2cc(Cl)c(O)cc21` (stereo not drawn) [Compound 3], the results for the inhibition constant Ki on D-2 receptor and at dopamine D-1 receptor (setting [2]) were 6500 nM and 380 nM, respectively. Further, the minimal effective dose in test [1] (sc) was under 10 mg/kg.
In the case of `CN1CCc2cc(Cl)c(O)cc2C(C2CCCC2)C1` (stereo not drawn) [Compound 12], the Ki on D-2 receptor was determined as 1540 nM; at dopamine D-1 receptor (setting [2]), 21 nM. In addition, the minimal effective dose in test [1] (po) was over 30 mg/kg; in test [1] (sc), 1 mg/kg.
On to `CN1CCc2cc(Cl)c(O)cc2C(OCCc2ccccc2)C1` (stereo not drawn) [Compound 11, 8-chloro-5-(phenethyloxy)-3-methyl-2,3,4,5-tetrahydro-lH-3-benzazepine-7-ol], for which the Ki on D-2 receptor was 1020 nM; on dopamine D-1 receptor (setting [2]), 8 nM. Moreover, the minimal effective dose in test [1] (po) is over 30 mg/kg; in test [1] (sc), 1 mg/kg.
As to `CN1CCc2cc(Cl)c(O)cc2C(n2cccc2)C1` (stereo not drawn) [Compound 13, 8-chloro-5-(1-pyrrolyl)-3-methyl-2,3,4,5-tetrahydro-lH-3-benzazepine-7-ol], the Ki was determined as 16100 nM at D-2 receptor and 11 nM on dopamine D-1 receptor (setting [2]). The minimal effective dose in test [1] (po) is over 30 mg/kg; in test [1] (sc), 0.3 mg/kg.
The matching figures for `CCOC(=O)Oc1cc2c(cc1Cl)CCN(C)CC2C1CCCCC1` (stereo not drawn) [Compound 16, 8-chloro-7-(ethoxy-formyloxy)-5-cyclohexyl-3-methyl-2,3,4,5-tetrahydro-lH-3-benzazepine]: 3330 nM, 133 nM, over 30 mg/kg and under 3 mg/kg.
Take `CN1CCc2cc(Cl)c(O)cc2C(C2C=CCCC2)C1` (stereo not drawn) [HO CH3 2-cyclohexenyl H, 8-chloro-5-(2-cyclohexenyl)-3-methyl-2,3,4,5-tetrahydro-lH-3-benzazepine-7-ol]: the results for the inhibitory constant (Ki) at D-2 receptor and on dopamine D-1 receptor (setting [2]) were 135 nM and 1.1 nM, respectively.
`CN1CCc2cc(Cl)c(O)cc2C(OCc2ccccc2)C1` (stereo not drawn) [Compound 10, 8-chloro-5-benzyloxy-3-methyl-2,3,4,5-tetrahydro-lH-3-benzazepine-7-ol]: the Ki on D-2 receptor was found to be 2300 nM; on dopamine D-1 receptor (setting [2]), 30 nM. Also, the results for the minimal effective dose in test [1] (po) and in test [1] (sc) were over 30 mg/kg and 3 mg/kg, respectively.
`CN1CCc2cc(Cl)c(O)cc2C(Oc2ccccc2)C1` (stereo not drawn) [Compound 4, 8-chloro-3-methyl-5-phenoxy-2,3,4,5-tetrahydro-lH-3-benzazepin-7-ol]: the Ki stood at 610 nM on D-2 receptor and 83 nM at dopamine D-1 receptor (setting [2]). In addition, the minimal effective dose in test [1] (po) came out at 10 mg/kg.
For the compound `C=CCC1CN(C)CCc2cc(Cl)c(OC(=O)COC)cc21` (stereo not drawn) [Compound 18, 8-chloro-7-(methoxy-acetoxy)-5-allyl-3-methyl-2,3,4,5-tetrahydro-lH-3-benzazepine], the Ki is 566 nM at D-2 receptor and 10.3 nM on dopamine D-1 receptor (setting [2]). For the same compound, the minimal effective dose in test [1] (po) is 100 mg/kg; in test [1] (sc), under 0.3 mg/kg.
On to `CCSC1CN(C)CCc2cc(Cl)c(O)cc21` (stereo not drawn) [HO CH3 SC2 H5 H, 8-chloro-5-ethylthio-3-methyl-2,3,4,5-tetrahydro-lH-3-benzazepine-7-ol], for which the figures for the Ki on D-2 receptor and at dopamine D-1 receptor (setting [2]) were 2610 nM and 33 nM, respectively.
For `CN1CCc2cc(Cl)c(O)cc2C(Sc2ccccc2)C1` (stereo not drawn) [Compound 5, 8-chloro-3-methyl-5-phenylthio-2,3,4,5-tetrahydro-lH-3-benzazepin-7-ol], the Ki on D-2 receptor worked out at 402 nM; on dopamine D-1 receptor (setting [2]), 33 nM. For the same compound, the minimal effective dose in test [1] (po) and in test [1] (sc) was over 30 mg/kg in each case.
`CN1CCc2cc(Cl)c(O)cc2C(OC2CCCCC2)C1` (stereo not drawn) [HO CH3 cyclohexyloxy H, 8-chloro-5-cyclohexyloxy-3-methyl-2,3,4,5-tetrahydro-lH-3-benzazepine-7-ol]: the Ki at D-2 receptor came to 10100 nM; on dopamine D-1 receptor (setting [2]), 38 nM.
The matching figures for `CN1CCc2cc(Cl)c(O)cc2C(=Cc2ccccc2)C1` [HO CH3 CHPh]: 705 nM and 73 nM.
